Reference: ChEMBL document CHEMBL3286224, “Optimization of ketone-based P2Y(12) receptor antagonists as antithrombotic agents: pharmacodynamics and receptor kinetics considerations” (Bioorg Med Chem Lett, 2014)
In brackets after ≈: the same amount, converted by molar mass. Activity calls are given as the source filed them. The calls are words filed in the database; no cut-off is given here.

Tests used:
[1] = target: T1, P2Y purinoceptor 12 (Homo sapiens, UniProt Q9H244)
Description: Antagonist activity at P2Y12 receptor (unknown origin) assessed as inhibition of ADP-induced [35S]GTPgammaS binding after 45 mins by scintillation counting analysis

[2] = Aqueous solubility of the compound; assay type: physicochemical; conditions: buffer
[3] = Apparent permeability from apical to basolateral side in human Caco2 cells at 10 uM at pH 6.5 after 60 mins by LC-MS analysis; assay type: ADME, cell-based; conditions: Caco-2, pH 6.5
[4] = physchem; conditions: buffer, pH 7.4
Description: Lipophilicity, log D of the compound at pH 7.4 by HPLC analysis

[5] = in vitro; conditions: human, liver microsomes
Description: Half life in human liver microsomes at 1 mg/ml

[6] = target: P2Y purinoceptor 1 (Homo sapiens) (UniProt P47900); assay: Binding affinity to P2Y1 receptor (unknown origin) at 10 uM
Chain of P2Y purinoceptor 1 (Homo sapiens) (P47900 whole entry, the tested form may be a part): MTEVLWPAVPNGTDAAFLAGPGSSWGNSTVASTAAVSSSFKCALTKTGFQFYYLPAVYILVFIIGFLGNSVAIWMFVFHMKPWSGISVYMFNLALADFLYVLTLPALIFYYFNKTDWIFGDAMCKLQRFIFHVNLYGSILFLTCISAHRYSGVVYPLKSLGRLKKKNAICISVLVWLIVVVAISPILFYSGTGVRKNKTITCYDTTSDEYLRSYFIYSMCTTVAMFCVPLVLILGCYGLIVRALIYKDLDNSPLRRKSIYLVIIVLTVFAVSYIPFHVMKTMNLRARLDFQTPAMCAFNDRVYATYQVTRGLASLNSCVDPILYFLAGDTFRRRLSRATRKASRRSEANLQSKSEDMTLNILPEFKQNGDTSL

[7] = test system: Canis familiaris; assay: Antithrombotic activity in conscious dog assessed as inhibition of platelet aggregation administered via infusion; assay type: functional, Canis lupus familiaris
[8] = target: T1, P2Y purinoceptor 12; assay: Displacement of [125I]AZ11931285 from human P2Y12 receptor expressed in CHOK1 cell membrane after 60 mins; parameters: species or system CHO-K1
[9] = test system: Canis familiaris; assay: Toxicity in conscious dog assessed as prolongation of bleeding time at 0.02 to 8700 nmol/kg/min administered via infusion relative to control; assay type: organism-based, Canis lupus familiaris; conditions: in vivo, iv
[10] = test system: Canis familiaris; assay: Toxicity in dog Folt's model of arterial thrombosis assessed as prolongation of bleeding time at 0.001 to 0.1 umol/kg/min; assay type: organism-based, Canis lupus familiaris; conditions: in vivo, iv
[11] = Half life in Beagle dog at 1 umol/kg, iv; assay type: ADME, organism-based, Canis lupus familiaris; conditions: in vivo
[12] = target: T1, P2Y purinoceptor 12; assay: Displacement of [125I]AZ11931285 from human P2Y12 receptor expressed in CHOK1 cell membrane after 60 seconds; parameters: species or system CHO-K1
[13] = AUC in Beagle dog at 1 umol/kg, iv; assay type: ADME, organism-based, Canis lupus familiaris; conditions: plasma
[14] = test system: Caco-2; conditions: human, caco-2, pH 7.4, 1 h, 10 µM
Description: (§1) Apparent permeability from apical to basolateral side in human Caco2 cells at 10 uM at pH 7.4 after 60 mins by LC-MS analysis

[15] = target: T2, Thromboxane A2 receptor (Homo sapiens) (UniProt P21731); assay: Binding affinity to thromboxane A2 receptor (unknown origin) at 10 uM
T2 sequence (whole entry): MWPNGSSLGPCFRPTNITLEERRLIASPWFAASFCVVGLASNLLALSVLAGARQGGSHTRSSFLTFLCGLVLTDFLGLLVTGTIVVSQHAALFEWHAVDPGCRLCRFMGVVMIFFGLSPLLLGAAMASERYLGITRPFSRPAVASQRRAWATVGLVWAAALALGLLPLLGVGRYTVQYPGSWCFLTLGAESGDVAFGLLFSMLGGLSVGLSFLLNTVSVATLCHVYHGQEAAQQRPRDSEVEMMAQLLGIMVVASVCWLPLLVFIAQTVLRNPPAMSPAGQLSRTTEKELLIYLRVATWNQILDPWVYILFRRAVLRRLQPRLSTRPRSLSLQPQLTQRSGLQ

[16] = target: T1, P2Y purinoceptor 12; assay: Displacement of [125I]AZ11931285 from human P2Y12 receptor expressed in CHOK1 cell membrane after 30 seconds; parameters: species or system CHO-K1
[17] = target: Platelet-activating factor receptor (Homo sapiens) (UniProt P25105); assay: Binding affinity to PAF receptor (unknown origin) at 10 uM
Chain of Platelet-activating factor receptor (Homo sapiens) (P25105 whole entry): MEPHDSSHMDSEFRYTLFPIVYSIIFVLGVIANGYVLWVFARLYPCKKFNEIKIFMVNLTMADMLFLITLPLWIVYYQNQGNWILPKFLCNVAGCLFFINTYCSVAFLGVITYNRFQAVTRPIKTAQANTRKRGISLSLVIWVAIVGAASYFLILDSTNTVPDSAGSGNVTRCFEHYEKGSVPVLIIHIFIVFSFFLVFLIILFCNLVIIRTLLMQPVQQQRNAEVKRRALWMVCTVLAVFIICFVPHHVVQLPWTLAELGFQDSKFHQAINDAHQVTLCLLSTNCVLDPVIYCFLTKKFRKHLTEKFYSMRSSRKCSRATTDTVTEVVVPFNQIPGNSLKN

[18] = species: Canis familiaris; assay: Antithrombotic activity in dog Folt's model of arterial thrombosis assessed as inhibition of platelet aggregation; assay type: functional, Canis lupus familiaris
[19] = target: T1, P2Y purinoceptor 12; assay: Displacement of [125I]AZ11931285 from human P2Y12 receptor expressed in CHOK1 cell membrane after 10 seconds; parameters: species or system CHO-K1
[20] = in vitro; conditions: human, Caco-2, pH 7.4
Description: as §1

[21] = test system: Canis familiaris; assay: Toxicity in conscious dog assessed as prolongation of bleeding time at 1.6 umol/kg/min administered via infusion relative to control; assay type: organism-based, Canis lupus familiaris; conditions: in vivo, iv
[22] = test system: Plasma; assay: Fraction unbound in Beagle dog plasma at 37 degC after 18 hrs by equilibrium dialysis technique; assay type: ADME, cell-free, Canis lupus familiaris
[23] = test system: Canis familiaris; assay: Toxicity in dog Folt's model of arterial thrombosis assessed as prolongation of bleeding time at 0.015 umol/kg/min; assay type: organism-based, Canis lupus familiaris; conditions: in vivo, iv

T1 sequence (Q9H244 whole entry): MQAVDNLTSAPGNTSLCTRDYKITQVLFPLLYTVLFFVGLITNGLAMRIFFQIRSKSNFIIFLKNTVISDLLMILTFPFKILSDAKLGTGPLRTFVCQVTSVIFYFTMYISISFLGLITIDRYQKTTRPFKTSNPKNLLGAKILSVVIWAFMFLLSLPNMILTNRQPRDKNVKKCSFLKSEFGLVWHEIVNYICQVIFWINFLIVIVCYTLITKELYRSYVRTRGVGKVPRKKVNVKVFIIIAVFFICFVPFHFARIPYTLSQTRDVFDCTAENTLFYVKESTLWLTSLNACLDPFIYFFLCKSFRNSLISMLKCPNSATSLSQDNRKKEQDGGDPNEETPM

| IC50 [1] | solubility [2] | Papp A→B at 1 h, 10 µM [3] | logD [4] | half-life [5] | Papp A→B at 1 h, 10 µM [20] | Structure (SMILES) | other results |
| --- | --- | --- | --- | --- | --- | --- | --- |
| 270 nM | > 100 µM | 0.4 ×10⁻⁶ cm/s | 3.1 | > 1.92 h |  | CCCC(=O)c1cc(C#N)c(N2CCC(C(=O)NS(=O)(=O)Cc3ccccc3Cl)CC2)nc1C |  |
| 57 nM | > 100 µM | 0.4 ×10⁻⁶ cm/s | 3.4 | > 1.92 h |  | CCCC(=O)c1cc(C#N)c(N2CCC(C(=O)NS(=O)(=O)Cc3ccc(Cl)cc3)CC2)nc1C |  |
| 59 nM | > 100 µM | 1.4 ×10⁻⁶ cm/s | 3.4 | > 1.92 h |  | CCCC(=O)c1cc(C#N)c(N2CCC(C(=O)NS(=O)(=O)Cc3ccc(C)cc3)CC2)nc1C |  |
|  |  |  | 2.8 | 1 h |  | CCOC(=O)c1cc(C#N)c(N2CCC(C(=O)NS(=O)(=O)Cc3ccccc3)CC2)nc1C | Activity [6]: inactive; ID80 [7]: 0.44 µmol/kg/min; IC50 [8]: 9 nM; Activity [9]: Non-toxic; Activity [10]: Non-toxic; half-life [11]: 5.1 h; IC50 [12]: 14 nM; AUC [13]: 5.9 µM·h; Papp [14]: 1 ×10⁻⁶ cm/s; Activity [15]: inactive; IC50 [16]: 22 nM; Activity [17]: inactive; ID80 [18]: 0.009 µmol/kg/min; IC50 [19]: 44 nM |
| 93 nM |  |  | 2.7 |  | < 0.1 ×10⁻⁶ cm/s | CCCC(=O)c1cc(C#N)c(N2CCC(C(=O)NS(=O)(=O)Cc3ccccc3)CC2)nc1CF |  |
| 42 nM | > 100 µM | 0.3 ×10⁻⁶ cm/s | 3 | > 1.92 h |  | CCCC(=O)c1cc(C#N)c(N2CCC(C(=O)NS(=O)(=O)Cc3ccc(F)cc3F)CC2)nc1C |  |
| 270 nM |  |  | 3.7 |  | 1.2 ×10⁻⁶ cm/s | CCCC(=O)c1cc(C#N)c(N2CCC(C(=O)NS(=O)(=O)Cc3ccccc3)CC2)nc1CCC |  |
| 17 nM | > 100 µM |  | 3.1 | > 1.92 h | 0.3 ×10⁻⁶ cm/s | CCCC(=O)c1cc(C#N)c(N2CCC(C(=O)NS(=O)(=O)Cc3ccccc3)CC2)nc1SC |  |
| 19 nM | 78 µM (≈ 41.1 µg/mL) |  |  | > 1.92 h | 2 ×10⁻⁶ cm/s | CCCC(=O)c1cc(C#N)c(N2CCC(C(=O)NS(=O)(=O)C3(c4ccccc4)CC3)CC2)nc1SC | fold change (FC) [21]: 6.7; Activity [6]: inactive; ID80 [7]: 0.052 µmol/kg/min; inhibition ([7]; Canis lupus familiaris): Dose-dependent effect; IC50 [8]: 4 nM; Fu [22]: 0.41%; Activity [23]: Toxic; half-life [11]: 5.2 h; IC50 [12]: 23 nM; AUC [13]: 6.7 µM·h; Activity [15]: inactive; IC50 [16]: 41 nM; Activity [17]: inactive; ID80 [18]: 0.005 µmol/kg/min; IC50 [19]: 126 nM |
| 130 nM | > 100 µM | 0.7 ×10⁻⁶ cm/s | 3.4 | > 1.92 h |  | CCCC(=O)c1cc(C#N)c(N2CCC(C(=O)NS(=O)(=O)Cc3ccc(C)c(F)c3)CC2)nc1C |  |
| 190 nM | > 100 µM | 1 ×10⁻⁶ cm/s | 3.3 | > 1.92 h |  | CCCC(=O)c1cc(C#N)c(N2CCC(C(=O)NS(=O)(=O)C(C)c3ccccc3)CC2)nc1C (racemic) |  |
| 160 nM | > 100 µM | 5.2 ×10⁻⁶ cm/s | 3.9 | > 1.92 h |  | CCCC(=O)c1cc(C#N)c(N2CCC(C(=O)NS(=O)(=O)C3(c4ccccc4)CC3)CC2)nc1C |  |
| 100 nM | > 100 µM | 0.3 ×10⁻⁶ cm/s | 2.8 | > 1.92 h | 0.32 ×10⁻⁶ cm/s | CCCC(=O)c1cc(C#N)c(N2CCC(C(=O)NS(=O)(=O)Cc3ccccc3)CC2)nc1C |  |
|  |  |  | 3 |  |  | CCCC(=O)c1cc(C#N)c(N2CCC(C(=O)NS(=O)(=O)Cc3ccccc3)CC2)nc1OC |  |
